Test results reported in PubChem BioAssay (NCI).
“And” between values parts separate entries of the source, which are not always exact repeats. Equal entries are not always repeated.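 How tested: cells in 96-well plates exposed to compound for 48 hours at five concentrations. GI50 = concentration required for 50% inhibition of growth. At the TGI there is no net growth.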

What was measured:
Assay in all cases: growth of human tumour cells (NCI), 48 h
A498 renal = system: A498 renal
IGROV1 ovarian = system: IGROV1 ovarian
MCF7 breast = system: MCF7 breast
NCI-H226 lung = system: NCI-H226 lung
NCI-H23 lung = system: NCI-H23 lung
NCI-H522 lung = system: NCI-H522 lung
OVCAR-4 ovarian = system: OVCAR-4 ovarian
RXF 393 renal = system: RXF 393 renal
SF-268 CNS = system: SF-268 CNS
SK-MEL-5 melanoma = system: SK-MEL-5 melanoma

| Structure (SMILES) | GI50 (A498 renal) [µM] | TGI (A498 renal) | GI50 (IGROV1 ovarian) [µM] | TGI (IGROV1 ovarian) | GI50 (MCF7 breast) [µM] | TGI (MCF7 breast) [µM] | GI50 (NCI-H226 lung) [µM] | TGI (NCI-H226 lung) [µM] | GI50 (NCI-H23 lung) [µM] | TGI (NCI-H23 lung) | GI50 (NCI-H522 lung) [µM] | TGI (NCI-H522 lung) | GI50 (OVCAR-4 ovarian) [µM] | TGI (OVCAR-4 ovarian) [µM] | GI50 (RXF 393 renal) | TGI (RXF 393 renal) | GI50 (SF-268 CNS) [µM] | TGI (SF-268 CNS) | GI50 (SK-MEL-5 melanoma) [µM] | TGI (SK-MEL-5 melanoma) |
| --- | --- | --- | --- | --- | --- | --- | --- | --- | --- | --- | --- | --- | --- | --- | --- | --- | --- | --- | --- | --- |
| C=C(CN(C)Cc1ccccc1)c1ccc(NC(=O)c2ccc(C(=C)CN(C)Cc3ccccc3)cc2)cc1 | 20.8 | 48.9 µM | 18.5 | 53.2 µM | 59.3 | > 100 | 34.6 | > 100 | 49.4 | > 100 µM | > 100 | > 100 µM | 17.6 | 38.6 | 32 µM | 99.3 µM | 39.3 | > 100 µM | 68.3 | > 100 µM |
| CN(C)CCN1CCC(Cc2ccccc2)CC1 | 47.2 | > 80 µM | > 80 | > 80 µM | > 80 | > 80 | > 80 | > 80 | > 80 | > 80 µM | > 80 | > 80 µM | > 80 | > 80 | > 80 µM | > 80 µM | > 80 | > 80 µM | 43.2 | > 80 µM |
| COc1ccc(/C=C\c2cc(OC)c(OC)c(OC)c2)cc1OCC(=O)O |  | > 83 µM |  | > 100 µM |  | > 100 |  | 48.2 |  | 12.5 µM |  | 9.01 µM |  | > 86.1 |  | 39.2 µM |  | > 100 µM |  | 50.1 µM |
| NC(=O)c1cc(I)ccc1NC(=O)/C=C/c1ccccc1 | 1.28 | 13 µM | 0.917 | 19.9 µM | 0.403 | > 42.6 | 1.96 | 40.3 | 1 | > 44.9 µM | 1.07 |  | 1.84 | 30.5 | 0.989 µM | 22.8 µM | 1.4 | 23.7 µM | 0.38 | 12.5 µM |
| COc1nc(=O)n(C2C=CC(=O)O2)cc1F (stereo unspecified) | 16.2 | 38.1 µM | 8.69 | 23.2 µM | 2.3 | 10.9 | 16.9 | 56.6 | 8.06 | 25.5 µM | 2.33 | 8.72 µM | 3.09 | 15.5 | 1.94 µM | 5.03 µM | 15.5 | 37.3 µM | 4.91 | 18.6 µM |
| CCOC(=O)Nc1c(C)nc2ccccn12 | > 100 | > 100 µM | > 100 | > 100 µM | > 100 | > 100 | > 100 | > 100 | > 100 | > 100 µM | > 100 | > 100 µM | > 100 | > 100 | > 100 µM | > 100 µM | > 100 | > 100 µM | > 100 | > 100 µM |
| CCCCCCCCSC1=C(Cl)C(=O)C(OC)=C(OC)C1=O |  | 27.9 µM |  | 32.2 µM |  | 17.4 |  | 34.6 |  | 31.5 µM |  | 14.4 µM |  | 29.8 |  | 30.3 µM |  | 28.7 µM |  | 18.6 µM |
| O=C(O)c1ccc(CNCc2ccccc2)cc1 |  | > 100 µM |  | > 100 µM |  | > 100 |  | > 100 |  | > 100 µM |  | > 100 µM |  | > 100 |  | > 100 µM |  | > 100 µM |  | > 100 µM |
| C=CC12CCN(CC1)C(C(O)c1ccnc3ccc(OC)cc13)C2 (stereo unspecified) | 60.5 | > 100 µM | > 100 | > 100 µM | 84.3 | > 100 | > 100 | > 100 | > 100 | > 100 µM | 47.8 | > 100 µM | > 100 | > 100 | 80 µM | > 100 µM | > 100 | > 100 µM | 39.2 | > 100 µM |
| NNc1ncnc2nc[nH]c12 | 5.41 | > 100 µM | 3.56 | > 55.1 µM | 3.1 | > 100 | 5.88 | > 100 | 10.1 | > 100 µM | 1.83 | > 100 µM | 3.79 | > 100 | 7.16 µM | > 100 µM | 8.24 | > 100 µM | 6.05 | 36.4 µM |
| O=C(Nc1nc(-c2c[nH]c3ccccc23)cs1)c1n[nH]c(=O)c2ccccc12 | 22 | > 100 µM | 2.01 | 34.7 µM | 2.01 | > 100 | 12.3 | 89.8 | 24.2 | > 100 µM | 3.26 | > 58.2 µM | 20.6 | > 100 | 0.446 µM | 20.7 µM | 1.25 | > 46.2 µM | 1.44 | > 100 µM |
| COC(=O)C1=CN(CC2=CC(=O)C(C)=CC2=O)C=C(C(=O)OC)C1c1ccccc1OC | 31.4 | > 87.9 µM | 22.3 | 57.3 µM | 24.4 | 69.8 | 16.4 | 41.5 | 19.5 | 45.6 µM | 23.7 | > 64.6 µM | 22.5 | > 67.4 | 16.2 µM | 32.3 µM | 18.7 | 58.6 µM | 14.2 | 30.4 µM |
| CCSc1nc(N=Cc2ccccc2O)c2cn[nH]c2n1 | 4.61 | 29.2 µM | 40.9 | > 100 µM | 19.9 | 59.4 | 17.9 | 73.9 | 15.2 | 34.9 µM | 48.9 | > 100 µM | 35 | > 100 | 12.9 µM | 44.6 µM | 23.9 | 77.4 µM | 23.8 | 65.9 µM |
| COc1cc2c3c(n(C)c(=O)c2cc1OC)-c1cc2c(cc1C3=O)OCO2 |  | > 97 µM |  | 40.9 µM |  | > 100 |  | > 100 |  | 37 µM |  | 34.8 µM |  | > 100 |  | > 62.4 µM |  | > 100 µM |  | > 44.8 µM |
| N#CC(I)CS(=O)(=O)c1ccccc1 (stereo unspecified) | 35.4 | > 100 µM | 16.2 | 39.8 µM | 16.7 | 39.9 | 17.9 | 37.8 | 16.7 | 31.7 µM | 1.34 | 2.78 µM | 2.01 | 4.69 | 4.1 µM | 13 µM | 18.8 | 35.2 µM | 17.7 | 31.9 µM |
| O=[N+]([O-])c1ccccc1N=Nc1c(O)[nH]c2c(Cl)cc(Cl)cc12 |  | > 100 µM |  | > 100 µM |  | > 100 |  | > 100 |  | > 100 µM |  | > 100 µM |  | > 100 |  | > 59.8 µM |  | > 100 µM |  | > 100 µM |
| CNc1cc2oc(=O)cc(C)c2cc1C |  | > 100 µM |  | > 100 µM |  | > 100 |  | > 100 |  | > 100 µM |  | > 100 µM |  | > 100 |  | > 100 µM |  | > 100 µM |  | > 100 µM |
| Cc1cccc(NC2=C(Cl)C(=O)c3nc(C)ccc3C2=O)c1 | 0.235 | 2.43 µM | 1.18 | 2.6 µM | 0.656 | 3.06 | 1.1 | 2.78 | 0.512 | 2.13 µM | 1.81 | 4.88 µM | 1.2 | 2.45 | 1.46 µM | 2.84 µM | 2.1 | 6.4 µM | 1.66 | 3.03 µM |
| Nc1nc(Cl)nc2c1ncn2C1CC(O)C(CO)O1 (stereo unspecified) |  | 48.2 µM |  | > 100 µM |  | > 100 |  | 62.5 |  | 4.78 µM |  | > 100 µM |  | > 100 |  | > 100 µM |  | > 95.7 µM |  | > 91.4 µM |
| O=c1[nH]c(-c2cccc(F)c2)cc2cc(F)ccc12 | 0.244 | 2.94 µM | 0.822 | > 100 µM | 0.329 | > 100 |  | > 100 | 1.61 | > 100 µM | 0.334 | > 100 µM | > 90.9 | > 100 | 0.358 µM |  | > 82.9 | > 100 µM | 0.334 | > 100 µM |
| O=C(Nc1ncc(Cc2cccc(C(F)(F)F)c2)s1)c1ccc2c(c1)OCCO2 | 0.0484 | 0.442 µM | 0.4 | > 100 µM | 0.175 | > 100 | 0.827 |  | 0.474 | > 57.6 µM | 0.196 |  | 0.608 | > 100 | 0.232 µM | 0.783 µM | 1.13 | > 100 µM | 0.281 | 2.36 µM |
| CCCCNCCCNCCCNC(=O)c1csc(-c2csc(CCNC(=O)C(NC(=O)C(C)C(O)C(C)NC(=O)C(NC(=O)c3nc(C(CC(N)=O)NCC(N)C(N)=O)nc(N)c3C)C(OC3OC(CO)C(O)C(O)C3OC3OC(CO)C(O)C(OC(N)=O)C3O)c3cnc[nH]3)C(C)O)n2)n1 (stereo unspecified) | 1.25 | 50 µM and 28.1 µM | 20.9 | 50 µM and > 84 µM |  | 37.7 | 0.477 |  | 0.269 | 7.42 µM and 2.2 µM |  | 7.96 µM and 10.1 µM | 0.459 |  | 0.443 µM and 0.171 µM | 2.66 µM and 1.15 µM | 3.16 | 50 µM and 15.2 µM | 3.14 | 50 µM and 11.6 µM |
